Assay results as given in patent US20210115398A1, “CORNEAL TISSUE CULTURE SYSTEM AND CORNEAL TISSUE CULTURE METHOD THEREOF” (Chang Gung Memorial Hospital, Linkou, priority 2019, published 2021).

Experiments:
[1] = test system: corneal endothelial cells of rabbit corneal tissue; test: Evaluation of the corneal endothelial cell density of the corneal tissue (tissue culture dish 100); assay type: cell-based; details: 20 μmol/L LPA
Method: The rabbit corneal tissues were placed individually in the tissue culture dishes 100, cultivated with the tissue culture media (DMEM basal medium, 10% FBS, and 25 μg/mL gentamycin) added with 20 μmol/L LPA (Example) or without LPA (Comparative example), and incubated at 37° C. with 5% CO2, wherein a portion of the corneal epithelium layer of the rabbit corneal tissues faced toward the first direction A and contacted with air and the corneal endothelium layer contacted with the tissue culture media. After 7 days of cultivation, the cell morphology and the analysis of cell density of the corneal endothelium layer were shown in FIG. 7 and FIG. 8. The density of the corneal endothelial cells of the example on day 0 was 3766.7±332.9 cells/mm^2, 4572.2±179.8 cells/mm^2 on day 5, and 4950.0±304.1 cells/mm^2 on day 7. […] According to the result, the corneal endothelial cell density may be increased in the LPA-treated example.

[2] = test system: corneal endothelial cells of transplanted damaged corneal tissue; test: Evaluation of corneal tissue transplantation into rabbit eyes; assay type: in vivo; details: damaged cornea cultivated 2 days with 20 μmol/L LPA, day 6
Method: The damaged corneal tissues were prepared using the PVDF filter membrane described above (please refer to the above paragraph). Then, those damaged corneal tissues were placed individually in the tissue culture dishes 100, cultivated with the tissue culture media (DMEM basal medium, 10% FBS, and 25 μg/mL gentamycin) added with 20 μmol/L LPA (Example) or without LPA (Comparative example 1), and incubated at 37° C. with 5% CO2, wherein a portion of the corneal epithelium layer of the rabbit corneal tissues faced toward the first direction A and contacted with air and the corneal endothelium layer contacted with the tissue culture media. After 2 days of cultivation, the damaged corneal tissues were transplanted into rabbit eyes. In addition, total corneal endothelium scrapping and undamaged mock donor corneas were also prepared to serve as comparative examples 2 and 3. External eye photography was taken in the rabbits after transplantation on day 0 and day 6, respectively. Following sacrifice on day 6, the corneal endothelial cells were stained with Alizarin Red S for observations of the cell morphology of the corneal endothelial cells in all density zones (A) (average of high-density and low-density zones) and cell shape in low-density zone (L) were examined. […] Please refer to FIG. 16 showing the analysis of the corneal endothelial cell density, circularity, and aspect ratio. The corneal endothelial cell density of the example was 2200.0±90.1 cells/mm^2, and the circularity and the aspect ratio of the corneal endothelial cells of example 1 were 0.84±0.05 and 1.35±0.02. However, in comparative example 1, the cell density was 1700.0±288.3 cells/mm^2, the circularity was 0.69±0.12, and the aspect ratio was 2.12±1.13.

[3] = test system: corneal endothelial cells of rabbit corneal tissue; test: Morphology of the corneal endothelial cells of the corneal tissue (ZO-1 immunostaining); assay type: cell-based; details: 10 μmol/L LPA, 7 days
Method: (§1) The rabbit corneal tissues were placed individually in the tissue culture dishes 100, cultivated with the tissue culture media (DMEM basal medium, 10% FBS, and 25 μg/mL gentamycin) added with 10 μmol/L LPA (Example) or without LPA (Comparative example), and incubated at 37° C. with 5% CO2 for 7 days, wherein a portion of the corneal epithelium layer of the rabbit corneal tissues faced toward the first direction A and contacted with air and the corneal endothelium layer contacted with the tissue culture media. The corneal endothelium layer was immunostained for ZO-1 on day 0 and day 7 for observing the cell morphology of the corneal endothelial cells of the corneal tissue.

[4] = test system: human corneal stromal cells; test: Cytokine analysis of culture media using human cytokine antibody array; assay type: cell-based; details: 20 μmol/L LPA, 2 days
Method: (§2) The gene expression profiling and the cytokine of the human corneal stromal cells were analyzed using cDNA microarray chip and Cytokine Array G5 chip. The human corneal stromal cells were cultured with culture media (DMEM basal medium, 10% FBS, and 25 μg/mL gentamycin) added with 20 μmol/L LPA (served as an Example) or without adding LPA (Comparative example) and incubated at 37° C. with 5% CO2. After 2 days of cultivation, the total RNA from the human corneal stromal cells in example and comparative example were isolated with the TRIzol reagent and purified using RNeasy column. After amplification and labeling the total RNA samples, GeneChip hybridization was performed and a GeneArray G7 scanner was used to scan the results. The culture media from the example and the comparative example were collected and the cytokines were analyzed using a human cytokine antibody array. […] It was confirmed that LPA stimulated the proliferation of the endothelial cells of the corneal tissue via two pathways including directly affecting the endothelial cells and stimulating the secretion of CCL20 and IL-1β from the […].

[5] = test system: corneal endothelial cells of rabbit corneal tissue; test: Evaluation of the cell proliferation of the corneal tissue (BrdU labeling); assay type: cell-based; details: 10 μmol/L LPA, 7 days, BrdU from day 5 to day 7
Method: as §1, with “Bromodeoxyuridine (BrdU)” for “The corneal endothelium layer”, “added to the culture media from” for “immunostained for ZO-1 on”, “5 to” for “0 and”, “proliferation” for “cell morphology”, “cells.” for “corneal endothelial cells of the corneal tissue.”

[6] = test system: corneal endothelial cells of human corneal residual tissue; test: Proliferation and morphology of corneal endothelial cells of human corneal residual tissue (ZO-1 and Ki-67 immunostaining); assay type: cell-based; details: 20 μmol/L LPA, Day 7, tissue immersed
Method: The cell morphology, cell density, and cell proliferation of the present evaluation were performed through immunostaining.
One-third of the human corneal residual tissue samples were used for immunostaining for ZO-1 directly (Day 0), while the remaining two-thirds were immersed and placed endothelial side up in the tissue culture media (DMEM basal medium, 10% FBS, and 25 μg/mL gentamycin) added with 20 μmol/L LPA (served as an Example) or without adding LPA (Comparative example) and incubated at 37° C. with 5% CO2. 7 days later, the tissues were cut into halves and subjected to immunostaining for ZO-1 and Ki-67 to evaluate the effects of LPA treatment on corneal endothelial cell density and cell proliferation. […] The corneal endothelial cell density of the LPA-treated example and the comparative example were 2848.8 cells/mm^2±331.7 cells/mm^2 and 2004.7 cells/mm^2±220.2 cells/mm^2.

[7] = test system: human corneal stromal cells; test: Gene expression analysis using cDNA microarray; assay type: cell-based; details: 20 μmol/L LPA, 2 days
Method: as §2

[8] = test system: damaged rabbit corneal endothelium layer; test: Healing effect of the damaged corneal endothelium layer of the corneal tissue (Alizarin Red S staining); assay type: cell-based; details: 20 μmol/L LPA
Method: A polyvinylidene fluoride (PVDF) filter membrane with regularly punched-out holes was used to cover the rabbit corneal endothelium layer; exposing the inner damage zone (I) scraped with Cellulose Eye Spears. The rest area of the corneal endothelium layer was defined as the outer damage zone (O). The damaged corneal tissues were placed individually in the tissue culture dishes 100, cultivated with the tissue culture media (DMEM basal medium, 10% FBS, and 25 μg/mL gentamycin) added with 20 μmol/L LPA (Example) or without LPA (Comparative example), and incubated at 37° C. with 5% CO2, wherein a portion of the corneal epithelium layer of the rabbit corneal tissues faced toward the first direction A and contacted with air and the corneal endothelium layer contacted with the tissue culture media. The inner damage zone (I) and the outer damage zone (O) of the corneal tissues on day 0 and day 2 were observed using Alizarin Red S staining. The morphology of the corneal tissue stained by Alizarin Red S was shown in FIG. 12, wherein the stained area (brown color) represented the corneal […] of the inner damage zone (I) and the unstained area represented the corneal endothelial cells of the outer zone (O). […] Refer to FIG. 14, the corneal endothelial cell density of the inner damage zone of the LPA-treated example was 1358±8 0.4 cells/mm^2, and the circularity and aspect ratio of the corneal endothelial cells were 0.68±0.15 and 2.39±1.14. However the corneal endothelial cell density of the inner damage zone of the comparative example was 900.0±198.4 cells/mm^2, and the circularity and aspect ratio of the corneal endothelial cells were 0.43±0.14 and 4.91±2.43. According to the results, the addition of LPA can stimulate cell proliferation of the damaged corneal tissue. Also, LPA enhanced the repopulation of the neighbor corneal endothelial cells to the damage zones.

[9] = test system: rabbit corneal endothelial cells; test: Dose-response test: rabbit corneal endothelial cells co-cultivated with rabbit corneal stroma cells; assay type: cell-based; details: 20 μmol/L LPA, 5 days of cultivation, co-culture with corneal stroma cells
Method: The tissue culture media (DMEM, 10% FBS, 25 μg/mL gentamycin) added with 0 μmol/L, 10 μmol/L, 20 μmol/L, and 100 μmol/L of LPA were used for co-cultivating the rabbit corneal endothelial cells and the rabbit corneal stroma cells at 37° C. with 5% CO2. After 5 days of cultivation, the cell number of the rabbit corneal endothelial cells of each groups were calculated and shown in FIG. 6. […] According to the result, the tissue culture media used for the following experiments was added with 20 μmol/L LPA.

lysophosphatidic acid [LPA]
density of the corneal endothelial cells ([1]; day 0): 3766.7±332.9 cells/mm^2
density of the corneal endothelial cells ([1]; day 5): 4572.2±179.8 cells/mm^2
density of the corneal endothelial cells ([1]; day 7): 4950.0±304.1 cells/mm^2
aspect ratio of the corneal endothelial cells [2]: 1.35±0.02
circularity of the corneal endothelial cells [2]: 0.84±0.05
corneal endothelial cell density [2]: 2200.0±90.1 cells/mm^2
transparency of the transplanted corneal tissue [2]: remained transparent
morphology of the corneal endothelial cells (ZO-1) [3]: not altered
Cytokine content in media: CCL20 [4]: 3.26 fold change
Cytokine content in media: CSF3 [4]: 0.85 fold change
Cytokine content in media: IL1A [4]: 0.80 fold change
Cytokine content in media: IL1B [4]: 1.73 fold change
BrdU labeling cells [5]: 35.2%±16.1%
Ki-67-positive cells [6]: 11.86%±2.80%
corneal endothelial cell density [6]: 2848.8 cells/mm^2
morphology of corneal endothelial cells (ZO-1) [6]: not altered
Gene expression in stromal cells: 1L1RN (Interleukin 1 receptor antagonist) [7]: 17.39 fold change
Gene expression in stromal cells: 1L7R (Interleukin 7 receptor) [7]: 15.03 fold change
Gene expression in stromal cells: CCL5 [7]: 17.63 fold change
Gene expression in stromal cells: CCL7 [7]: 11.39 fold change
Gene expression in stromal cells: CCL8 [7]: 15.89 fold change
Gene expression in stromal cells: CCL20 [7]: 625.99 fold change
Gene expression in stromal cells: CSF3 [7]: 85.04 fold change
Gene expression in stromal cells: CXCL3 [7]: 11.31 fold change
Gene expression in stromal cells: CXCL5 [7]: 22.32 fold change
Gene expression in stromal cells: CXCL10 [7]: 20.97 fold change
Gene expression in stromal cells: EPGN [7]: 10.85 fold change
Gene expression in stromal cells: ESM1 [7]: 20.11 fold change
Gene expression in stromal cells: IL1A (Interleukin 1 alpha) [7]: 58.49 fold change
Gene expression in stromal cells: IL1B [7]: 572.05 fold change
Gene expression in stromal cells: INHBA [7]: 20.97 fold change
Gene expression in stromal cells: OLR1 [7]: 24.25 fold change
aspect ratio of the corneal endothelial cells ([8]; day 2, inner damage zone): 2.39±1.14
circularity of the corneal endothelial cells ([8]; day 2, inner damage zone): 0.68±0.15
repopulation of the inner damage zone (I) ([8]; two days after tissue cultivation): repopulated by neighbor corneal endothelial cells
corneal endothelial cell proliferation (cell number) [9]: significantly stimulated corneal endothelial cell proliferation
